# According to patent publication US20240292836A1, “AGENTS FOR REPELLING, KNOCKING DOWN, AND/OR KILLING BLOOD-SUCKING ARTHROPODS AND USES THEREOF” (The United States of America, as represented by the …, priority 2023, published 2024):
# What was measured:
# [1] = test system: female Aedes aegypti adults; assay: Arm-in-cage cloth-patch in vivo assay (topical repellency); conditions: for Minimum Effective Dose (MED): Mean ± SEM, lowest dosage with five or fewer bites through repellent-treated cloth in 1-minute exposure, at least three volunteers; for topical repellency (in words): initial screening dose of 0.187 mg/cm^2
# Text: Arm-in-Cage Test Cloth-Patch in vivo Assay Pyrethroid-susceptible yellow fever mosquitoes Ae. aegypti (Orlando strain) were reared in the United States Department of Agriculture Mosquito and Fly Research Unit in Gainesville, FL under standard protocols. Three to seven-day-old, starved female mosquitoes were collected using a “draw box” (Posey, K. and Schreck, C. E, 1981, “An airflow apparatus for selecting female mosquitoes for use in repellent and attraction studies” Mosquito News 41: 566-568; US. Department of Agriculture, 1977, Repellent activity of compounds submitted by Walter Reed Army Institute of Research. Part 1. Protection time and minimum effective dosage against Aedes aegypti mosquitoes. Tech. Bull. No. 1549) and were placed in cages at an approximate density 200 mosquitoes/cage. Repellency was determined according to a standard protocol (Bernier, U. R., et al, 2022. “Evaluation and application of repellent-treated uniform/clothing and textiles against vector mosquitoes,” In Advances in Arthropod Repellents (pp. 69-94). Academic Press) and reported as the minimum effective dosage (MED). […] A nylon leg stocking was placed over the arm to prevent direct contact of the repellent-treated cloth patch with the skin. […]. Cloth was treated by placing a rolled bandage (50 cm^2) into each vial containing 1 mL of solution and allowing the patch to absorb the solution completely. The cloth was taped over a 4 by 9-cm opening cut into a vinyl plastic sheet that was draped around the volunteers' arms and taped in place. The cloth was air-dried approximately 15 min before conducting each test. The work reported here is an average of the MED for at least three volunteers. Each volunteer covered his or her arm with a nylon stocking to avoid contact between the skin and the treated cloth and wore a rubber glove to prevent mosquito bites on the hand.
# . The minimum effective dose (MED) was determined for each repellent and subject, defined as the lowest concentration that prevents biting). MEDs from each subject were pooled and reported as the average among all replicates/subjects with SEM. A minimum of 3 replicates were performed on at least three human subjects. Written informed consent was obtained for all human subjects used in this study in accordance with IRB protocol #20193320, as approved by the WCG™ IRB.
# Statistical Analyses: Student's T-test was used to compare the means between tested compound and DEET and Icaridin in the arm-in-cage in vivo assay and neurophysiological study.
# [2] = test system: female Aedes aegypti adults; assay: High-throughput in vitro screening assay, spatial repellency; format: in vivo; conditions: for RD50 (30 min), half-repellent dose / RD50 (60 min), half-repellent dose: dose per filter paper surface area, 95% CI; for spatial repellency (in words): highest-tested dose of 100 μg/cm^2; for 30-minute RD50 compared with that of DEET: 30 minutes, α = 0.05
# Text: A high-throughput screening method for evaluating spatial repellency and vapor toxicity, described by Jiang S., et al. (2019, “High-Throughput Screening Method for Evaluating Spatial Repellency and Vapour Toxicity to Mosquitoes,” Med. Vet. Entomol. 33: 388-396), was used for this study. As shown in FIG. 2 of Jiang S., et al., assay tubes were constructed by covering 12.5 cm glass tubes on one side with netting secured by a rubber band. The tubes were used in horizontal orientation. Adult mosquitos 2-7 days old were anesthetized on ice for approximately 5 minutes and 16 females were transferred to each tube. The other end of the tube was then closed with netting and a rubber band.
# The conical ends of 50 mL centrifuge tubes (Eppendorf, Enfield, Connecticut, USA) were cut at approximately the 10 mL mark to create the end caps for the assay tubes. […] For repellency tests, filter papers for the “untreated” side of the assay tube received pure acetone, whereas filter papers for the “treated” side received acetone solution containing a dissolved compound of interest. For knockdown tests, both filter papers were treated with acetone solution containing one or more compounds of interest. Acetone on both filter papers served as negative controls.
# For repellency assays, filter papers were given 10 minutes of evaporation time before being placed into the end caps with forceps (Jiang S., et al. 2019, Supra). For knockdown assays, filter papers were given 5 minutes of evaporation time before being placed into the end caps. […] Assay tubes were capped such that the cap securely overlapped the glass but approximately 5 mm of space was left between the netting and the filter paper so that the mosquitos could not contact the filter paper.
# Assay tubes were placed on a white polystyrene platform with wooden sticks glued flatly across it to prevent the tubes from rolling. A straight black line was drawn down the center of the platform and assay tubes were centered on the line at the beginning of the tests. In repellency assays, data were collected at 15, 30, and 60 minutes after the end caps were placed on the assay tubes. Assay tubes were not disturbed for the entire 60 minutes. At each time point, the number of mosquitos that remained on the treated side was visually assessed and recorded. The treated side was alternated with each set of tests. For repellency tests, DEET at a dose of 100 μg/cm^2 served as the positive control.
# For the high-throughput in vitro screening assays, analyses were conducted with R version 4.2.2 statistical software (R Core Team, 2022, “R: a language and environment for statistical computing. R foundation for statistical computing,” Vienna, Austria). Concentrations were calculated in terms of filter paper surface area (μg/cm^2) for repellency assays and in terms of assay tube volume (μg/cm^3) for knockdown assays.
# Half-repellent (RD50), half-knockdown (KD50), and half-lethal (LD50) doses were calculated from dose-response curves (DRCs) obtained by four-parameter log-logistic equation models generated using the drc package (Dose Response Curve Analyses Software; Ritz C. et al., 2015, “Dose-response analysis using R,” PLOS ONE 10: e0146021). For repellency test analysis, the upper and lower asymptotes for the proportion of mosquitos remaining on the treated side were fixed at 0.5 and 0, respectively. For KD and mortality test analysis, the upper and lower asymptotes for the proportion of mosquitos knocked down or killed were fixed at 1.0 and 0, respectively. To determine whether RD50, KD50, or LD50 values differed across compounds at each timepoint, a joint model assuming different values for each compound and a null model that assumed a single value for all compounds were compared with a likelihood ratio test.
SMILES,Minimum Effective Dose (MED) [1] [mg/cm^2],topical repellency (in words) [1],"RD50 (30 min), half-repellent dose [2] [μg/cm^2]","RD50 (60 min), half-repellent dose [2] [μg/cm^2]",spatial repellency (in words) [2],30-minute RD50 compared with that of DEET [2],"MED, times lower than the initial screening dose ([1]; relative to initial screening dose of 0.187 mg/cm^2) [times]"
"COC(=O)c1cccc(C)c1 [M3MB, methyl 3-methylbenzoate]",0.219,demonstrated repellency at doses lower than 0.187 mg/cm^2 on at least one test subject,>100,>100,did not show spatial repellencies,–,–
"COC(=O)c1cccc(OC)c1 [M3MOB, methyl 3-methoxybenzoate]",0.266,demonstrated repellency at doses lower than 0.187 mg/cm^2 on at least one test subject,–,–,–,not significantly different from that of DEET,–
"COC(=O)c1ccc(N)cc1 [M4AB, methyl 4-aminobenzoate]",>0.187,did not show any topical repellencies,>100,>100,did not show spatial repellencies,–,–
"COC(=O)c1ccc(Cl)cc1 [M4CB, methyl 4-chlorobenzoate]",>0.187,did not show any topical repellencies,>100,>100,did not show spatial repellencies,–,–
"COC(=O)c1ccc(O)cc1 [M4HB, methyl 4-hyhroxylbenzoate]",>0.187,did not show any topical repellencies,>100,>100,did not show spatial repellencies,–,–
"COC(=O)c1ccc(C)cc1 [M4MB, methyl 4-methylbenzoate]",>0.187,did not show any topical repellencies,>100,>100,did not show spatial repellencies,–,–
"COC(=O)c1ccc(OC)cc1 [M4MOB, methyl 4-methoxybenzoate]",>0.187,did not show any topical repellencies,>100,>100,did not show spatial repellencies,–,–
"COC(=O)c1ccc(C(F)(F)F)cc1 [M4tFMB, methyl 4-(trifluoromethyl)benzoate]",>0.187,did not show any topical repellencies,>100,>100,did not show spatial repellencies,–,–
"COC(=O)c1ccccc1N [MA, methyl anthranilate]",0.027,–,11.84,–,–,significantly lower than that of DEET,–
"COC(=O)c1ccccc1NC(C)=O [MAcA, methyl N-acetylanthranilate]",0.101,demonstrated repellency at doses lower than 0.187 mg/cm^2 on at least one test subject,>100,>100,did not show spatial repellencies,–,–
"COC(=O)c1ccccc1 [MB, Methyl benzoate]",>0.187,did not show any topical repellencies,>100,>100,did not show spatial repellencies,–,–
"O=C(Oc1ccccc1)c1ccccc1 [PhB, phenyl benzoate]",>0.187,did not show any topical repellencies,>100,>100,did not show spatial repellencies,–,–
"O=C(OCCc1ccccc1)c1ccccc1 [PhEB, phenethyl benzoate]",>0.187,did not show any topical repellencies,>100,>100,did not show spatial repellencies,–,–
"C=COC(=O)c1ccccc1 [VB, vinyl benzoate]",>0.187,did not show any topical repellencies,>100,>100,did not show spatial repellencies,–,–
"CC(C)OC(=O)c1ccccc1 [iPrB, iso-propyl benzoate]",>0.187,did not show any topical repellencies,>100,>100,did not show spatial repellencies,–,–
"CCCCOC(=O)c1ccc(O)cc1 [nB4HB, n-butyl 4-hydroxybenzoate]",>0.187,did not show any topical repellencies,>100,>100,did not show spatial repellencies,–,–
"CCCCOC(=O)c1ccccc1NC=O [nBFA, n-Butyl N-formylanthranilate]",0.0075,–,>100,>100,did not show any spatial repellencies,–,25
"CCCOC(=O)c1ccc(O)cc1 [nPr4HB, n-propyl 4-hydroxylbenzoate]",>0.187,did not show any topical repellencies,>100,>100,did not show spatial repellencies,–,–
